According to patent US9901636B2, “Conjugate of a photosensitiser and chitosan and uses thereof” (PCI BIOTECH AS, priority 2012, dated 2018):

Assays:
[1] = Fluorescence quantum yield, steady-state comparative method vs anthracene; type: physicochemical; conditions: DMSO at room temperature
Method: UV-Vis measurements were recorded on a Perkin-Elmer Lambda 25 UV-Vis. spectrometer equipped with a Peltier Temperature Programmer. Fluorescence emission spectra were obtained using a SPEX FluoroMax spectrometer, using a cell with spectral range 170-2200 nm (Spectrocell Corporation, Oreland, Pa., USA). Absorption spectra were recorded at 20° C. and fluorescence emission spectra were recorded at ambient temperature, using quartz cuvette with a 10 mm path length. All the fluorescence spectra were recorded with constant slit widths, 1 nm for excitation and 1 nm for emission and fluorescence spectra were averaged over three scans for quantum yield study. However, for FIG. 5 (III) fluorescence spectra were obtained with slit widths 3 nm for excitation and 3 nm for emission.
Fluorescence quantum yields of compounds 3, 5, 16A-19B (all excited at Δex.=λmax=419 nm) were determined relative to a dilute solution of standard anthracene (φF=0.27, λex=365.5 nm) in absolute ethanol by using the steady-state comparative method. using the following equation: φX=φST(GradX/GradST)(ηS^2,ηST^2) where, the subscripts ST and X denote standard and test respectively, φ is the fluorescence quantum yield, Grad the gradient from the plot of integrated fluorescence intensity versus absorbance, and η the refractive index of the solvent.

[2] = Partitioning in aqueous:CHCl3 two-phase system; type: physicochemical; conditions: two-phase H2O/CHCl3 system (FIG. 6)
Excerpt: (A) TPP(p-NH2)13 (B) TPPNH-Pip 5 (C) TPPp0.25-CS-TMA0.75 17A (D) TPPp0.25-CS-MP0.75 19A. Aqueous phases are shown on top.
In the ^1H NMR spectra of final compound TPPp0.1-CS-MP0.9 18A all peaks of the chitosan backbone along with the 1-methyl piperazine peaks can be clearly identified; however there is no observable NMR signal of the TPP moiety (FIG. 5E). […] In d6-DMSO the TPP peaks could be observed but in this case the chitosan backbone peaks were broadened and not clearly identifiable. […] The TPPp0.1-CS-MP0.9 18A has a dark red color confirming the presence of the PS.

[3] = Bhaumik et al., excited at 418 nm in DMF, TPP as standard; cited from earlier work
[4] = Table 4, λabs 420 nm, λem 653 nm
[5] = Table 2, excited at 419 nm, standard anthracene

Row | Quantum Yield (φF) [1, 4] | Quantum Yield (φF) [1, 5] | Partitioning between aqueous and organic phase [2] | Compound | Fluorescence quantum yield (φF), literature value [3]
1 | 0.01331 | – | – | 5-(4-Carboxyphenyl)-10,15,20-triphenylchlorin [Compound 26] | –
2 | – | 0.0002 | did not partition into the aqueous phase | Nc1ccc(-c2c3nc(c(-c4ccccc4)c4ccc([nH]4)c(-c4ccccc4)c4nc(c(-c5ccccc5)c5ccc2[nH]5)C=C4)C=C3)cc1 [Compound 3, 5-(4-Aminophenyl)-10,15,20-triphenylporphyrin, reference compound] | 0.05
3 | – | 0.0036 | did not partition into the aqueous phase | O=C(CN1CCNCC1)Nc1ccc(-c2c3nc(c(-c4ccccc4)c4ccc([nH]4)c(-c4ccccc4)c4nc(c(-c5ccccc5)c5ccc2[nH]5)C=C4)C=C3)cc1 [Compound 5, 5-(4α-Piperazineacetylamidophenyl)-10,15,20-triphenylporphyrin] | –
4 | 0.00246 | – | – | Nc1ccc(-c2c3nc(c(-c4ccccc4)c4ccc([nH]4)c(-c4ccccc4)c4nc(c(-c5ccccc5)c5ccc2[nH]5)C=C4)CC3)cc1 [Compound 20, 5-(4-Aminophenyl)-10,15,20-triphenylchlorin] | –
